Assay results reported in US10562912B2 (C&C Research Laboratories, priority 2013, dated 2020).

How the values were obtained:
Assay type in all cases: cell-based
LNCaP = experiment: Cell growth inhibition assay, prostate cancer cell line LNCaP (medium with 10 ng/mL IL-6); details: Homo sapiens, medium supplemented with 10 ng/mL of IL-6, 10,000 cells/well
STAT3 = target: T1, STAT3 (Homo sapiens, UniProt P40763); experiment: STAT3 reporter gene assay (luciferase), LNCaP stable cell line (pSTAT3-TA-luc), IL-6 stimulation
T1 construct: plasmid pSTAT3-TA-luc), which contains a stably operating STAT3 promoter; endogenous in cells
T1 sequence (P40763 whole entry): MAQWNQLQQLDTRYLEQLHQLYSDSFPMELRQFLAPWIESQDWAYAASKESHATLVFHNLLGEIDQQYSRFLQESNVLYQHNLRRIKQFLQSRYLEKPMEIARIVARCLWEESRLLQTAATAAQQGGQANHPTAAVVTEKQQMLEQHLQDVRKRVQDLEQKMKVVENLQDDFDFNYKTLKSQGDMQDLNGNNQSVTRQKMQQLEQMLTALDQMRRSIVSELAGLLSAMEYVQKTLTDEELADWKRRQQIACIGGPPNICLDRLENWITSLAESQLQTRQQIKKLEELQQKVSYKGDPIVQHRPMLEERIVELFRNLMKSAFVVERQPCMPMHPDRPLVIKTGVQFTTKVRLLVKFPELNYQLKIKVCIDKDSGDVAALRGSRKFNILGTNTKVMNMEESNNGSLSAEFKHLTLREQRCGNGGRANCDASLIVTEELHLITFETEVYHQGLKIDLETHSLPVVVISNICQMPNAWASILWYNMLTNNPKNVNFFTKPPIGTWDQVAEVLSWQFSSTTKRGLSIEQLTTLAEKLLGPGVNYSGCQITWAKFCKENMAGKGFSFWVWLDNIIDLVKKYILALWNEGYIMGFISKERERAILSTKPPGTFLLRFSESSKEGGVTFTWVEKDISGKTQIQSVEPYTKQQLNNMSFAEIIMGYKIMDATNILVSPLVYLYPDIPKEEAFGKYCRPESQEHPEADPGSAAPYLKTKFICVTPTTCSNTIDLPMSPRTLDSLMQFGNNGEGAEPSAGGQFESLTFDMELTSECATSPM
How it was run: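 LNCaP cells stably carrying pSTAT3-TA-luc, in RPMI1640 with 3% DCC-FBS, were treated with compound and then stimulated with 10 ng/mL IL-6 for 24–48 h at 37 °C. Luciferase activity was measured in lysates. A parallel plate measured viability by CellTiter-Glo, with stimulated 0.1% DMSO wells as the positive control.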

AGS = experiment: Cell growth inhibition assay, stomach cancer cell line AGS; details: Homo sapiens; AGS stomach cancer cell line, 3,000 cells/well
Procedure: The inhibitory effects of the compounds of the present invention against the growth of cancer cells were evaluated as shown below. The cancer cell lines including stomach cancer cell line (AGS), breast cancer cell lines (MDA-MB-231, MDA-MB-468, and BT-549), prostate cancer cell lines (LNCaP and DU-145), colon cancer cell line (HCT116), ovarian cancer cell line (SW626), liver cancer cell line (Hep3B), kidney cancer cell line (ACHN), lung cancer cell line (NCI-H23) and blood cancer cell lines (HEL92.1.7 and U266) were cultured under the protocol provided by each supplier. A medium supplemented with 10 ng/mL of IL-6 was used for LNCaP, a prostate cancer cell line, when treated with a drug. Each type of cells to be used in experiments were sub-cultured in a 96-well plate by counting the exact number of cells using Tali™ Image-based Cytometer (Life Technologies). In a 96-well plate, AGS, HCT116, and DU-145 were employed with 3,000 cells/well; NCI-H23, SW626, Hep3B, ACHN, BT-549, MDA-MB-231, HEL92.1.7, and U266 were employed with 5,000 cells/well; and LNCaP and MDA-MB-468 were employed with 10,000 cells/well. The cells were treated with the compounds listed in Examples which were diluted in various concentrations. Upon completion of the compounds treatment, AGS, HCT116, SW626, DU145, NCI-H23, Hep3B, ACHN, BT-549, LNCaP, HEL92.1.7, and U266 cells were cultured at 37° C. under 5% CO2 for from 72 to 96 hours, and MDA-MB-231 and MDA-MB-468 cells were cultured at 37° C. in air for from 72 to 96 hours. Subsequently, the cells were observed under microscope and drug precipitation and particular findings were investigated and recorded. And then, the 96-well plate was placed at room temperature for 30 minutes, added with 20 μL/well of CellTiter-Glo solution (Cat No. G7573, Promega) and shaken for 10 minutes, followed by being subjected to the measurement using PHERAstar™ microplate reader (BMG LABTECH) according to the supplier's general luminometer protocol. Wells where only culture liquid added without cell plating were used as a negative control, whereas wells where culture liquid containing 0.1% DMSO instead of the compounds listed in Examples were used as a positive control.

| SMILES | IC50 (LNCaP) | IC50 (STAT3) | IC50 (AGS) |
| --- | --- | --- | --- |
| COC(=O)c1cc(-c2cccc(NC(=O)c3cc4ccc(NS(C)(=O)=O)cc4[nH]3)c2)c(C(F)(F)F)cc1OC [Example 289, methyl 4-methoxy-3′-(6-(methylsulfonamido)-1H-indole-2-carboxamido)-6-(trifluoromethyl)-[1,1′-biphenyl]-3-carboxylate] | > 10 µM | > 10 µM | 32 µM |
| O=C(Nc1cccc(-c2cccnc2C(F)(F)F)c1)c1cc2ccc([N+](=O)[O-])cc2[nH]1 [Example 292, 6-nitro-N-(3-(2-(trifluoromethyl)pyridin-3-yl)phenyl)-1H-indole-2-carboxamide] | > 10 µM | > 10 µM | 43.7 µM |
| COc1ccc(-c2cccc(NC(=O)c3cc4ccc([N+](=O)[O-])cc4[nH]3)c2)c(F)c1 [Example 295, N-(2′-fluoro-4′-methoxy-[1,1′-biphenyl]-3-yl)-6-nitro-1H-indole-2-carboxamide] | > 10 µM | > 10 µM | > 50 µM |
| COc1ccc(-c2cccc(NC(=O)c3cc4ccc(NS(C)(=O)=O)cc4n3C(=O)OC(C)(C)C)c2)c(F)c1 [Example 296, tert-butyl 2-((2′-fluoro-4′-methoxy-[1,1′-biphenyl]-3-yl)carbamoyl)-6-(methylsulfonamido)-1H-indole-1-carboxylate] | > 10 µM | > 10 µM | > 50 µM |
| COc1ccc(F)c(-c2ccnc(NC(=O)c3cc4ccc([N+](=O)[O-])cc4[nH]3)c2)c1 [Example 297, N-(4-(2-fluoro-5-methoxyphenyl)pyridin-2-yl)-6-nitro-1H-indole-2-carboxamide] | 8.6 µM | > 10 µM | 21.6 µM |
| COC(=O)c1ccc(Cl)c(-c2cccc(NC(=O)c3cc4ccc([N+](=O)[O-])cc4[nH]3)c2)c1 [Example 298, methyl 6-chloro-3′-(6-nitro-1H-indole-2-carboxamido)-[1,1′-biphenyl]-3-carboxylate] | > 10 µM | > 10 µM | 31.7 µM |
| COC(=O)c1ccc(Cl)c(-c2cccc(NC(=O)c3cc4ccc(NS(C)(=O)=O)cc4[nH]3)c2)c1 [Example 299, methyl 6-chloro-3′-(6-(methylsulfonamido)-1H-indole-2-carboxamido)-[1,1′-biphenyl]-3-carboxylate] | > 10 µM | 3.1 µM | 43.1 µM |
| COC(=O)c1ccc(Cl)c(-c2ccnc(NC(=O)c3cc4ccc(NS(C)(=O)=O)cc4[nH]3)c2)c1 [Example 300, methyl 4-chloro-3-(2-(6-(methylsulfonamido)-1H-indole-2-carboxamido)pyridin-4-yl)benzoate] | > 10 µM | 5.3 µM | > 50 µM |
| CS(=O)(=O)Nc1ccc2cc(C(=O)Nc3cc(C#N)cc(-c4ccc(F)cc4C(F)(F)F)c3)[nH]c2c1 [Example 315, N-(5-cyano-4′-fluoro-2′-(trifluoromethyl)-[1,1′-biphenyl]-3-yl)-6-(methylsulfonamido)-1H-indole-2-carboxamide] | 3 µM | 2.6 µM | 25.9 µM |
| CN(c1ccc2cc(C(=O)Nc3cccc(-c4ccccc4C(F)(F)F)c3)n(C)c2c1)S(C)(=O)=O [Example 343, 1-methyl-6-(N-methylmethylsulfonamido)-N-(2′-(trifluoromethyl)-[1,1′-biphenyl]-3-yl)-1H-indole-2-carboxamide] | 2.8 µM | 1.8 µM | 5.8 µM |
| CN(c1ccc2cc(C(=O)Nc3cccc(-c4ccc(F)cc4F)c3)n(C)c2c1)S(C)(=O)=O [Example 345, N-(2′,4′-difluoro-[1,1′-biphenyl]-3-yl)-1-methyl-6-(N-methylmethylsulfonamido)-1H-indole-2-carboxamide] | 3.5 µM | 1.6 µM | 6.9 µM |
| CS(=O)(=O)Nc1ccc2cc(C(=O)Nc3cccc(-c4cc(C(N)=O)ccc4Cl)c3)[nH]c2c1 [Example 380, N-(5′-carbamoyl-2′-chloro-[1,1′-biphenyl]-3-yl)-6-(methylsulfonamido)-1H-indole-2-carboxamide] | > 10 µM | > 10 µM | 42.6 µM |
| CS(=O)(=O)Nc1ccc2cc(C(=O)Nc3cc(-c4cc(C(N)=O)ccc4Cl)ccn3)[nH]c2c1 [Example 381, N-(4-(5-carbamoyl-2-chlorophenyl)pyridin-2-yl)-6-(methylsulfonamido)-1H-indole-2-carboxamide] | > 10 µM | > 10 µM | > 50 µM |
| CS(=O)(=O)Nc1ccc2cc(C(=O)Nc3cccc(C(F)(F)c4ccccn4)c3)[nH]c2c1 [Example 389, N-(3-(difluoro(pyridin-2-yl)methyl)phenyl)-6-(methylsulfonamido)-1H-indole-2-carboxamide] | 9.1 µM | 5.8 µM | 20.3 µM |

The remaining lines, values ahead:

| IC50 (LNCaP) | IC50 (STAT3) | IC50 (AGS) | SMILES |
| --- | --- | --- | --- |
| > 10 µM | 7 µM | 20.9 µM | CS(=O)(=O)Nc1ccc2cc(C(=O)Nc3cccc(-c4ncccc4C(F)(F)F)c3)[nH]c2c1 [Example 290, 6-(methylsulfonamido)-N-(3-(3-(trifluoromethyl)pyridin-2-yl)phenyl)-1H-indole-2-carboxamide] |
| 8.1 µM | 3.2 µM | 13.9 µM | CS(=O)(=O)Nc1ccc2cc(C(=O)Nc3cccc(-c4cnccc4C(F)(F)F)c3)[nH]c2c1 [Example 291, 6-(methylsulfonamido)-N-(3-(4-(trifluoromethyl)pyridin-3-yl)phenyl)-1H-indole-2-carboxamide] |
| 3.5 µM | 2.6 µM | 16.1 µM | CS(=O)(=O)Nc1ccc2cc(C(=O)Nc3cccc(-c4cnc(Cl)cc4C(F)(F)F)c3)[nH]c2c1 [Example 294, N-(3-(6-chloro-4-(trifluoromethyl)pyridin-3-yl)phenyl)-6-(methylsulfonamido)-1H-indole-2-carboxamide] |
| > 10 µM | > 10 µM | 15.2 µM | COc1cc(C(F)(F)F)c(-c2cccc(NC(=O)c3cc4ccc(NS(C)(=O)=O)cc4[nH]3)c2)cc1C(N)=O [Example 377, N-(5′-carbamoyl-4′-methoxy-2′-(trifluoromethyl)-[1,1′-biphenyl]-3-yl)-6-(methylsulfonamido)-1H-indole-2-carboxamide] |
| > 10 µM | > 10 µM | 39.9 µM | CS(=O)(=O)Nc1ccc2cc(C(=O)Nc3cccc(-c4cc(C(N)=O)c(O)cc4C(F)(F)F)c3)[nH]c2c1 [Example 378, N-(5′-carbamoyl-4′-hydroxy-2′-(trifluoromethyl)-[1,1′-biphenyl]-3-yl)-6-(methylsulfonamido)-1H-indole-2-carboxamide] |
| > 10 µM | > 10 µM | 30.1 µM | CS(=O)(=O)Nc1ccc2cc(C(=O)Nc3cccc(-c4cc(C(N)=O)ccc4C(F)(F)F)c3)[nH]c2c1 [Example 379, N-(5′-carbamoyl-2′-(trifluoromethyl)-[1,1′-biphenyl]-3-yl)-6-(methylsulfonamido)-1H-indole-2-carboxamide] |
| > 10 µM | 4.3 µM | 26.3 µM | CS(=O)(=O)Nc1ccc2cc(C(=O)Nc3cccc(-c4ccc(N)cc4C(F)(F)F)c3)[nH]c2c1 [Example 385, N-(4′-amino-2′-(trifluoromethyl)-[1,1′-biphenyl]-3-yl)-6-(methylsulfonamido)-1H-indole-2-carboxamide] |
| 8 µM | 3.4 µM | 7.6 µM | CNc1ccc(-c2cccc(NC(=O)c3cc4ccc(NS(C)(=O)=O)cc4[nH]3)c2)c(C(F)(F)F)c1 [Example 386, N-(4′-(methylamino)-2′-(trifluoromethyl)-[1,1′-biphenyl]-3-yl)-6-(methylsulfonamido)-1H-indole-2-carboxamide] |
| 8.2 µM | 3.8 µM | 9.8 µM | CS(=O)(=O)Nc1ccc2cc(C(=O)Nc3cccc(C(F)(F)c4ccncc4)c3)[nH]c2c1 [Example 388, N-(3-(difluoro(pyridin-4-yl)methyl)phenyl)-6-(methylsulfonamido)-1H-indole-2-carboxamide] |
